Assay results from patent US5424428A, “( -)-[[4-(1,4,5,6-tetrahydro-4-methyl-6-oxo-3-pyridazinyl)phenyl]-hydrazono]p r” (Orion-yhtyma Oy, priority 1991, dated 1995).
pEC50: −log10 of the molar value. Converted amounts (≈) assume the structure as drawn.

Experiments:
[1] = Bioavailability: concentration of total drug in dog plasma after single dose oral administration; type: in vivo
Description: FIG. 1 is a graph depicting the concentration of total [[4-(1,4,5,6-tetrahydro-4-methyl-6-oxo-3-pyridazinyl)phenyl]hydrazono]propanedinitrile in dog plasma over time after single dose oral administration of the racemate and the (-) enantiomer.
Concentration of total [[4-(1,4,5,6-tetrahydro-4-methyl-6-oxo-3-pyridazinyl)phenyl]hydrazono]propanedinitrile in dog plasma after single dose oral administration of the racemate (1 mg/kg) and (-)-enantiomer (0.5 mg/kg) is shown in FIG. 1. Curve A is for the (-)-enantiomer and curve B is for the racemic [[4-(1,4,5,6-tetrahydro-4-methyl-6-oxo-3-pyridazinyl)phenyl]hydrazono]propanedinitrile.

[2] = Water solubility in 67 mM phosphate buffer (pH 2); type: physicochemical
Description: The water solubility of (-) enantiomer and racemic mixture of
[[4-(1,4,5,6-tetrahydro-4-methyl-6-oxo-3-pyridazinyl)phenyl]-
hydrazono]propanedinitrite (l) in 67 mM phosphate buffer (pH 2).

[3] = LD50 given intravenously to rats; conditions: rat, in vivo, intravenous
[4] = tested on: right ventricular papillary muscle of guinea-pig; test: Cardiotonic action in isolated, electrically paced, right ventricular papillary muscle; type: cell-based; conditions: for pEC50: cardiotonic effect, guinea-pig papillary muscle, normal Tyrode's bath solution
Description: Cardiotonic action of the (-) and (+) enantiomers of [[4-(1,4,5,6-tetrahydro-4-methyl-6-oxo-3-pyridazinyl)phenyl]hydrazono]propanedinitrile (I) was studied in isolated, electrically paced, right ventricular papillary muscle of guinea-pig. Experiments were carried out in normal Tyrode's bath solution as described by Otani et al., Japan.

In the case of `CC1CC(=O)NN=C1c1ccc(NN=C(C#N)C#N)cc1` (single isomer, unassigned; (-)) [(-) enantiomer, (-)-[[4-(1,4,5,6-Tetrahydro-4-Methyl-6-Oxo-3-Pyridazinyl)phenyl]Hydrazono]Propanedinitrile], the “dose needed to produce the same plasma concentration level of the total drug substance, compared to racemate” value ([1]; dog, single dose oral, racemate 1 mg/kg, (-)-enantiomer 0.5 mg/kg, FIG. 1) was “less than half dose is needed to produce the same plasma concentration level of the total drug substance”, the “bioavailability compared to racemate” value ([1]; result in words) was “superior compared to racemate” and the solubility ([2]; aqueous buffer, water solubility, 67 mM phosphate buffer (pH 2)) was 29 µg/mL (≈ 103 µM). The “water solubility of the (-) enantiomer compared to the racemate” value ([2]; ratio (-) enantiomer / racemate) was “over 30 fold”, the LD50 [3] was 57 mg/kg and the pEC50 [4] was 7.22. The “potency of (-) enantiomer relative to (+) enantiomer” value ([4]; cardiotonic, ratio (-) vs (+) enantiomer) was 47 times and the cardiotonic potency ([4]; result in words) was “cardiotonic potency is predominantly due to the optically active (-) enantiomer”.
`CC1CC(=O)NN=C1c1ccc(NN=C(C#N)C#N)cc1` (single isomer, unassigned; (+)) [(+), (+)-[[4-(1,4,5,6-Tetrahydro-4-Methyl-6-Oxo-3-Pyridazinyl)phenyl]Hydrazono]Propanedinitrile] showed a pEC50 [4] of 5.55.
